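Exposure lasted 48 hours, with cells grown in 96-well plates and compounds tested at five concentrations. Here, GI50 denotes the concentration required for 50% inhibition of growth.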 Active and inactive are the calls of the source. No stated cut-off is given here; in the data, active = GI50 up to about 1.1 µM and inactive = higher.
How the values were obtained:
Experiment in all cases: NCI tumour cell line growth inhibition, 48 h
NCI-H522 = system: NCI-H522
SN12C = system: SN12C
IGROV-1 = system: IGROV-1
DU-145 = system: DU-145
PC-3 = system: PC-3
TK-10 = system: TK-10
HOP-92 = system: HOP-92
NCI-H460 = system: NCI-H460
RXF 393 = system: RXF 393
CAKI-1 = system: CAKI-1
CCRF-CEM = system: CCRF-CEM
NCI-H23 = system: NCI-H23
UO-31 = system: UO-31
OVCAR-4 = system: OVCAR-4
MOLT-4 = system: MOLT-4
MCF7 = system: MCF7
OVCAR-5 = system: OVCAR-5
A549 = system: A549
OVCAR-3 = system: OVCAR-3
HCC 2998 = system: HCC 2998

Measured: GI50

C#CCOC(=O)c1ccccc1O
inactive: NCI-H522 > 100 µM | SN12C > 100 µM | IGROV-1 > 100 µM | DU-145 > 100 µM | PC-3 > 100 µM | TK-10 > 100 µM | HOP-92 > 100 µM | NCI-H460 > 100 µM | RXF 393 > 100 µM | CAKI-1 > 100 µM | CCRF-CEM > 100 µM | NCI-H23 > 100 µM | UO-31 > 100 µM | OVCAR-4 > 100 µM | MOLT-4 > 100 µM | MCF7 > 100 µM | OVCAR-5 > 100 µM

COC1=C2C[C@](OC)(C#CC=CC#CC2O)CC1(C)C (stereo partly drawn)
inactive: NCI-H522 > 100 µM | SN12C > 100 µM | IGROV-1 18.2 µM | DU-145 > 100 µM | PC-3 > 100 µM | TK-10 > 100 µM | NCI-H460 > 100 µM | A549 40.4 µM | RXF 393 > 100 µM | CAKI-1 > 100 µM | CCRF-CEM 34.4 µM | NCI-H23 > 100 µM | OVCAR-3 > 100 µM | UO-31 28.6 µM | MOLT-4 49 µM | HCC 2998 37.3 µM | MCF7 > 100 µM | OVCAR-5 > 100 µM

COC(=O)C1(NC(=O)C(CC(=O)OCc2ccccc2)NC(=O)OCc2ccccc2)CCCCCC1 (stereo not drawn)
inactive: NCI-H522 69.3 µM | IGROV-1 37.6 µM | DU-145 66.5 µM | PC-3 28.6 µM | TK-10 67.8 µM | HOP-92 36.6 µM | NCI-H460 34.8 µM | A549 32.8 µM | RXF 393 55 µM | CAKI-1 20.8 µM | NCI-H23 41.8 µM | OVCAR-3 26.1 µM | UO-31 35.1 µM | OVCAR-4 14.1 µM | MOLT-4 21.4 µM | MCF7 33 µM | OVCAR-5 39.2 µM

COC(=O)C1CCC(=O)N1CN(C(C)=O)c1cccc(O)c1 (stereo not drawn)
inactive: NCI-H522 > 100 µM | SN12C > 100 µM | IGROV-1 > 100 µM | DU-145 > 100 µM | PC-3 > 100 µM | TK-10 > 100 µM | HOP-92 > 100 µM | NCI-H460 > 100 µM | A549 > 100 µM | RXF 393 > 100 µM | CAKI-1 > 100 µM | NCI-H23 > 100 µM | OVCAR-3 > 100 µM | UO-31 > 100 µM | OVCAR-4 > 100 µM | MOLT-4 > 100 µM | MCF7 > 100 µM | OVCAR-5 > 100 µM

O=C(Cc1ccccc1)NNc1nc(NNC(=O)c2ccncc2)nc(Nc2ccc(Cl)cc2)n1
inactive: SN12C > 10 µM | IGROV-1 > 10 µM | DU-145 > 10 µM | TK-10 > 10 µM | HOP-92 > 10 µM | A549 > 10 µM | CAKI-1 > 10 µM | CCRF-CEM > 10 µM | NCI-H23 > 10 µM | UO-31 > 10 µM | OVCAR-4 > 10 µM | MOLT-4 > 10 µM | HCC 2998 > 10 µM | MCF7 > 10 µM

N#Cc1[nH]c(=O)n(-c2cccc3ccccc23)c1N
inactive: NCI-H522 > 10 µM | SN12C > 10 µM | IGROV-1 > 10 µM | DU-145 > 10 µM | PC-3 > 10 µM | TK-10 > 10 µM | NCI-H460 > 10 µM | A549 > 10 µM | RXF 393 > 10 µM | CAKI-1 > 10 µM | CCRF-CEM > 10 µM | NCI-H23 > 10 µM | OVCAR-3 > 10 µM | OVCAR-4 > 10 µM | MOLT-4 > 10 µM | HCC 2998 > 10 µM | MCF7 > 10 µM | OVCAR-5 > 10 µM

CC(=O)OC1CCC2(C)C(=CC(C3C=C4CC(OC(C)=O)CCC4(C)C4=C3C3CC5OC6(CCC(C)CO6)C(C)C5C3(C)CC4)C3=C2CCC2(C)C3CC3OC4(CCC(C)CO4)C(C)C32)C1 (stereo not drawn)
inactive: NCI-H522 6.17 µM | SN12C 17.6 µM | IGROV-1 11.5 µM | DU-145 14.2 µM | PC-3 12.9 µM | TK-10 14.5 µM | HOP-92 14.1 µM | A549 13.7 µM | RXF 393 16.1 µM | CAKI-1 18.2 µM | NCI-H23 14.7 µM | OVCAR-3 15.1 µM | UO-31 15.5 µM | OVCAR-4 14 µM | MOLT-4 2.07 µM | MCF7 10.3 µM | OVCAR-5 17.7 µM

CSC1(CC(=O)N2CCCCC2)C(=O)Nc2ccccc21 (stereo not drawn)
inactive: IGROV-1 > 100 µM | DU-145 > 100 µM | PC-3 > 100 µM | TK-10 > 100 µM | NCI-H460 > 100 µM | A549 > 100 µM | NCI-H23 > 100 µM | OVCAR-3 > 100 µM | UO-31 > 100 µM | OVCAR-4 > 100 µM | MOLT-4 > 100 µM | HCC 2998 > 100 µM | MCF7 > 100 µM | OVCAR-5 > 100 µM

Reference: ChEMBL document CHEMBL1201862, “PubChem BioAssay data set” (2004)
